Test results taken from article PMC7155212 (Journal of Enzyme Inhibition and Medicinal Chemistry, 2020).
“And” between values parts separate entries of the source, which are not always exact repeats. Identical values can stand only once. Like-named read-outs stand apart in the source and are kept apart here.

Experiments:
[1] = In vitro antioxidant activity (DPPH radical scavenging); settings: DPPH free radical scavenging, 30 min at 37 °C, mean ± SD (n = 3)
Protocol: The assay provides an assessment of the antioxidant activity due to free radical scavenging by measuring hydrogen atom (or one electron) donating activity. DPPH is a purple stable free radical that is reduced to a yellow-coloured diphenylpicryl hydrazine by an antioxidant. The spectrophotometric assay was carried out as described by the literature method with a slight modification. 100 μL of a sample solution was added to 100 μL of DPPH solution. Following 30 min of incubation at 37 °C and protection from light, the absorbance at 517 nm was determined using a microplate reader. Each group was measured three times in parallel to average. IC50 values were calculated. The percentage of DPPH radical scavenging rate of the target compound is calculated as follows: DPPH free radical scavenging effect (%)=[A0 – (A1−A2)]/A0×100% where A0 is the absorbance of blank group; A1 is the absorbance of sample group; A2 is the absorbance of sample blank group.

[2] = molecular target: BChE from equine serum (Equus caballus, UniProt P81908); test: biochemical; format: biochemical
Sequence of BChE from equine serum (P81908 whole entry): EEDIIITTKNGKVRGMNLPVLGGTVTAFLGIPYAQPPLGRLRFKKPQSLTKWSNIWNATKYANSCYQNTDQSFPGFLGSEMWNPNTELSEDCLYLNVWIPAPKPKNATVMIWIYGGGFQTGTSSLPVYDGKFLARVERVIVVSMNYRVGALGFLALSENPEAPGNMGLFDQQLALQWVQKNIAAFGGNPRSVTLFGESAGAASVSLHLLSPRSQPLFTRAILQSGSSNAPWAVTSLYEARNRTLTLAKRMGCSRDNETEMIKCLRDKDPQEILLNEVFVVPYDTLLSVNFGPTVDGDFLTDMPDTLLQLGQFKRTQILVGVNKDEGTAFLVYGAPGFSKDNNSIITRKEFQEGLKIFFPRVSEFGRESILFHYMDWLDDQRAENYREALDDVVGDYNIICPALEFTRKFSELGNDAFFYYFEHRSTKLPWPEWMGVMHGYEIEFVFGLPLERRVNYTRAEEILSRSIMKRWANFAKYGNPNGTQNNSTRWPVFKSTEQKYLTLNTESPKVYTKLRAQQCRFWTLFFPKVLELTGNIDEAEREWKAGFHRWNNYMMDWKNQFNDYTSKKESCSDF
Protocol: (§1) The anticholinesterase activity of the 3-arylbenzofuranone compounds was determined by the method of Ellman et al.[16] with slight modifications. […] Acetylthiocholine iodide and butyrylthiocholine iodide were used as substrates respectively. 5,5′-Dithiobis(2-nitrobenzoic acid) (DTNB) was used as the chromophoric reagent. To a 96-well plate, 120 µL of phosphate buffer solution (0.1 M, pH = 8.0, PBS), 20 µL of DTNB (3.3 mM in 0.1 M PBS, pH = 8.0) were added sequentially, 20 µL AChE solution (0.2 U/mL in 0.1 M PBS, pH = 8.0), 20 µL of different concentrations of the sample solution, shaken well, and incubated at 37 °C for 5 min. Then, 20 µL of substrate (5 mM in 0.1 M PBS, pH = 8.0) were added, shaken well, and incubated at 37 °C for 20 min. […] BChE inhibitory activity was assessed similarly using butyrylthiocholine iodide as the substrate. The sample solution was set to five concentration gradients and the experiment was repeated three times. […] Cholinesterase inhibitory effect (%)=[A0−(A1−A2)]/A0×100% where A0 is the absorbance of blank group; A1 is the absorbance of sample group; A2 is the absorbance of sample blank group.

[3] = molecular target: AChE from electric eel (Electrophorus electricus, UniProt O42275); test: biochemical; format: biochemical; settings: Ellman method, mean ± SD (n = 3)
Sequence of AChE from electric eel (O42275 24-633): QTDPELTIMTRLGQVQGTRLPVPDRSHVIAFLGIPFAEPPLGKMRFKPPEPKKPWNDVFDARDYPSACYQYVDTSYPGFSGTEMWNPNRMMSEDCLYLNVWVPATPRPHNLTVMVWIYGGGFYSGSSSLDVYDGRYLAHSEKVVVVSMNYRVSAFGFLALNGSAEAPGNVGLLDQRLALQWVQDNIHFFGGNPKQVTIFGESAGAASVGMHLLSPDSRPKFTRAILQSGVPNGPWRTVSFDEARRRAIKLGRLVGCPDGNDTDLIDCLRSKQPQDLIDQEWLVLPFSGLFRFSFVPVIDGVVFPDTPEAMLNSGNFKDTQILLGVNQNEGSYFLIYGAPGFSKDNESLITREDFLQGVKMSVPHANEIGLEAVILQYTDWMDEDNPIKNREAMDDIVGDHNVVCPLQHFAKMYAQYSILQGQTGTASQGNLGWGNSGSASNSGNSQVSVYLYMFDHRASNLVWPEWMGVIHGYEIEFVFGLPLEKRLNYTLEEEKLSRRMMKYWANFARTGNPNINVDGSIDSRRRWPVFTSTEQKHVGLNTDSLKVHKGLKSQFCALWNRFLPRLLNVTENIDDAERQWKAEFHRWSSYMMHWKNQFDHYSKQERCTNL
Protocol: as §1

[4] = molecular target: T1, MAO-B (Rattus norvegicus, UniProt P19643); test: In vitro MAO inhibitory activity (Holt method, crude enzyme from rat liver); format: biochemical, Wistar rat
T1 construct: The crude enzyme was extracted from the liver of 200–250 g of Wistar rats; from tissue; host or cells: liver of Wistar rats (crude enzyme)
T1 sequence (P19643 1-520): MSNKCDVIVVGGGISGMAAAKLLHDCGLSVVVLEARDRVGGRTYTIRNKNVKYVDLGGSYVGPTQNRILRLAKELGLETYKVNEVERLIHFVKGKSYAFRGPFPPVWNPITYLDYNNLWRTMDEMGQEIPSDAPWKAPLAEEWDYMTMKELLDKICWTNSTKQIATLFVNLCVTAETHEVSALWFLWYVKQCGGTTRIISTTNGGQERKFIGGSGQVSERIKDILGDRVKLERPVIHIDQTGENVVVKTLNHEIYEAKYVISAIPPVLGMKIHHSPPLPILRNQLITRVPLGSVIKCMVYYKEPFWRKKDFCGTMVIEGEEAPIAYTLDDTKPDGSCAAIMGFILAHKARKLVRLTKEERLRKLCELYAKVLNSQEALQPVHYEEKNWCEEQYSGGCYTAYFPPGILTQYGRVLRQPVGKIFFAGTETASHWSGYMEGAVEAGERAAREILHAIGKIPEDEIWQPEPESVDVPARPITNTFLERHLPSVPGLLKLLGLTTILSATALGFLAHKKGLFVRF
Protocol: The MAO inhibitory activity of the 3-arylbenzofuranone compounds was determined by the method of Holt et al.[17] with slight modifications. The crude enzyme was extracted from the liver of 200–250 g of Wistar rats according to literature methods[18]^,[19]. The crude enzyme protein content was determined by the Bradford method using a Bradford Protein Assay Kit (Beyotime). The assay was performed in 0.2 M potassium phosphate buffer pH 7.6 on 96-well plates in 240 μl total volume. The chromogenic solution containing 1 mM vanillic acid, 0.5 mM 4-aminoantipyrine, and 4 U/ml horseradish peroxidase in 0.2 M potassium phosphate buffer pH 7.6 was mixed anew for each measurement. 40 μL of enzyme solution and 40 μL of sample solution were added to a 96-well plate. The solution was then incubated at 37 °C for 20 min. 120 μL of the 4-(trifluoromethyl) benzylamine solution and 40 μL of the chromogenic solution were added subsequently and incubated at 37 °C for 90 min. The absorbance was measured at 490 nm using a microplate reader, and the inhibition rate of MAO and the IC50 value of each sample were calculated according to the formula. The control group replaced the sample solution with PBS (0.2 M, pH = 7.6), the positive control replaced the sample with the positive drug, and the blank group replaced the substrate with PBS, and each group was measured three times in parallel to average. Monoamine oxidase inhibitory effect (%) = [(AC – AB) – (AS – ASB )]/(AC – AB)×100% where AC is the absorbance of control group; AB is the absorbance of blank group; AS is the absorbance of sample group; ASB is the absorbance of sample blank group.

[5] = equine serum BChE, Ellman method, mean ± SD (n = 3), read-out: IC50 value BuChE inhibitory activity
[6] = read-out: IC50 value AChE inhibitory activity
[7] = rat liver crude enzyme, 4-(trifluoromethyl)benzylamine substrate, mean ± SD (n = 3), read-out: IC50 value MAO-B inhibitory activity
[8] = IC50 value AChE inhibitory activity

| Compound | IC50 [1] | IC50 [2, 5] | IC50 [3, 6] | IC50 [4, 7] | IC50 [2] | IC50 [3, 8] | IC50 [4] |
| --- | --- | --- | --- | --- | --- | --- | --- |
| COc1cc(C2C(=O)Oc3c2ccc(O)c3O)cc(OC)c1OC (centres unmarked) [Compound 20, 6,7-Dihydroxy−3–(3′,4′,5′-trimethoxyphenyl)-benzofuranone] | 42.6 ± 2.58 µM | > 200 µM | 0.089 ± 0.01 µM | 149 ± 3.39 µM |  |  |  |
| COc1cc2c(cc1O)C(c1cc(OC)c(OC)c(OC)c1)C(=O)O2 (centres unmarked) [Compound 21, 5-Hydroxy-6-methoxy-3–(3′,4′,5′-trimethoxyphenyl)-benzofuranone] | 5.35 ± 0.33 µM | 146 ± 3.05 µM | 2.38 ± 0.2 µM | > 500 µM |  |  |  |
| COc1ccc(C2C(=O)Oc3c2ccc(O)c3O)cc1 (centres unmarked) [Compound 5, 6,7-Dihydroxy-3–(4′-methoxyphenyl)-benzofuranone] | 5.51 ± 0.2 µM | > 200 µM |  | 22.48 ± 0.22 µM |  |  |  |
| COc1cc2c(cc1O)C(c1cc(OC)c(OC)c(OC)c1)C(=O)O2 (centres unmarked) [Compound 23, 5-Hydroxy-6-methoxy-3–(3′,4′,5′-trimethoxyphenyl)-benzofuranone] | 11.9 ± 0.16 µM | > 200 µM | 26 ± 1.26 µM | 43.9 ± 1.26 µM |  |  |  |
| COc1ccc2c(c1)OC(=O)C2c1ccc(OC)c(OC)c1 (centres unmarked) [Compound 9, 6-Methoxy-3–(3′,4′-dimethoxyphenyl)-benzofuranone] | 17.2 ± 0.58 µM |  |  |  | > 200 µM | 0.35 ± 0.03 µM | 354 ± 5.05 µM |
| COc1ccc(C2C(=O)Oc3cc(OC)c(OC)cc32)cc1OC (centres unmarked) [Compound 19, 5,6-Dimethoxy-3–(3′,4′-dimethoxyphenyl)-benzofuranone] | 12.6 ± 0.14 µM |  |  |  | > 200 µM | 36.5 ± 0.51 µM | 146 ± 1.83 µM |
| COc1cc(C2C(=O)Oc3ccc(O)cc32)cc(OC)c1OC (centres unmarked) [Compound 14, 5-Hydroxy-3–(3′,4′,5′-trimethoxyphenyl)-benzofuranone] | 5.11 ± 0.13 µM | 128 ± 4.65 µM | 3.37 ± 0.17 µM | 69.7 ± 1.26 µM |  |  |  |
| COc1ccc2c(c1)C(c1ccc(OC)c(OC)c1OC)C(=O)O2 (centres unmarked) [Compound 17, 5-Methoxy-3–(2′,3′,4′-trimethoxyphenyl)-benzofuranone] | 29.2 ± 0.31 µM | > 200 µM | 42.3 ± 4.01 µM | 82.7 ± 1.31 µM |  |  |  |
| COc1ccc(C2C(=O)Oc3cc(O)ccc32)cc1 (centres unmarked) [Compound 1, 6-Hydroxyl-3–(4′-methoxyphenyl)-benzofuranone] | 13.3 ± 0.27 µM | > 200 µM | 50.6 ± 3.12 µM | 61.3 ± 0.79 µM |  |  |  |
| COc1cc(C2C(=O)Oc3cc(O)ccc32)cc(OC)c1OC (centres unmarked) [Compound 11, 6-Hydroxy-3–(3′,4′,5′-trimethoxyphenyl)-benzofuranone] | 11.2 ± 0.24 µM | > 200 µM | 48.24 ± 0.34 µM | 38.6 ± 0.42 µM |  |  |  |
| COc1ccc2c(c1)OC(=O)C2c1ccc(OC)c(OC)c1OC (centres unmarked) [Compound 18, 6-Methoxy-3–(2′,3′,4′-trimethoxyphenyl)-benzofuranone] | 64.5 ± 1.29 µM | > 200 µM | 124 ± 2.17 µM | 180.3 ± 1.32 µM |  |  |  |
| COc1ccc(C2C(=O)Oc3cc(OC)ccc32)cc1 (centres unmarked) [Compound 3, 6-Methoxy-3–(4′-methoxyphenyl)-benzofuranone] | 11.8 ± 0.18 µM | > 200 µM | 80.5 ± 3.41 µM | 298 ± 5.4 µM |  |  |  |
| O=C1O[C@H]([C@@H](O)CO)C(O)=C1O [Ascorbic acid, reference compound] | 7.69 ± 0.1 µM |  |  |  |  |  |  |
| COc1ccc(C2C(=O)Oc3cc(OC)c(OC)cc32)cc1 (centres unmarked) [Compound 10, 5,6-Dimethoxy-3–(4′-methoxyphenyl)-benzofuranone] | 13.89 ± 0.11 µM | > 200 µM | 28.7 ± 1.44 µM | 493 ± 7.1 µM |  |  |  |
| COc1ccc(C2C(=O)Oc3ccc(O)cc32)cc1 (centres unmarked) [Compound 2, 5-Hydroxyl-3–(4′-methoxyphenyl)-benzofuranone] | > 100 µM |  | 4.15 ± 1.02 µM | 14.7 ± 0.78 µM |  |  |  |
| COc1ccc(C2C(=O)Oc3c2ccc(OC)c3O)cc1 (centres unmarked) [Compound 8, 6-Methoxy-7-hydroxy-3–(4′-methoxyphenyl)-benzofuranone] | 5.96 ± 0.14 µM | > 200 µM | 9.24 ± 0.62 µM | 40.6 ± 1.92 µM |  |  |  |
| COc1ccc(C2C(=O)Oc3ccc(OC)cc32)cc1 (centres unmarked) [Compound 4, 5-Methoxy-3–(4′-methoxyphenyl)-benzofuranone] | 33.1 ± 1.45 µM | > 200 µM | < 1 µM and 0.74 µM | 383 ± 5.08 µM |  |  |  |
| COc1ccc(C2C(=O)Oc3c2ccc(OC)c3O)cc1OC (centres unmarked) [Compound 12, 6-Methoxy-7-hydroxy-3–(3′,4′-dimethoxyphenyl)-benzofuranone] | 1.6 ± 0.1 µM | 180.9 ± 1.48 µM | 5.25 ± 0.44 µM | 22.9 ± 0.73 µM |  |  |  |
| COc1ccc(C2C(=O)Oc3cc(OC)c(O)cc32)cc1 (centres unmarked) [Compound 7, 5-Hydroxy-6-methoxy-3–(4′-methoxyphenyl)-benzofuranone] | 2.62 ± 0.21 µM | 32.9 ± 0.76 µM | < 1 µM and 0.52 µM | 91.13 ± 0.7 µM |  |  |  |
| COc1ccc2c(c1O)OC(=O)C2c1cc(OC)c(OC)c(OC)c1 (centres unmarked) [Compound 22, 6-Methoxy-7-hydroxy-3–(3′,4′,5′-trimethoxyphenyl)-benzofuranone] | 6.44 ± 0.12 µM | > 200 µM | 2.03 ± 0.09 µM | 30.3 ± 0.65 µM |  |  |  |
| COc1ccc2c(c1)C(c1cc(OC)c(OC)c(OC)c1)C(=O)O2 (centres unmarked) [Compound 15, 5-Methoxy-3–(3′,4′,5′-trimethoxyphenyl)-benzofuranone] | 32.6 ± 0.42 µM | > 200 µM | 2.54 ± 0.19 µM | 215 ± 2.27 µM |  |  |  |
| COc1ccc(C2C(=O)Oc3cc(O)ccc32)cc1OC (centres unmarked) [Compound 6, 6-Hydroxy-3–(3′,4′-dimethoxyphenyl)-benzofuranone] |  | > 200 µM | 24.4 ± 1.21 µM | 48.6 ± 2.02 µM |  |  |  |
| COc1ccc2c(c1)OC(=O)C2c1cc(OC)c(OC)c(OC)c1 (centres unmarked) [Compound 16, 6-Methoxy-3–(3′,4′,5′-trimethoxyphenyl)-benzofuranone] | 18 ± 0.48 µM | > 200 µM | 4.07 ± 0.19 µM | > 500 µM |  |  |  |
